Test results published in ChEMBL document CHEMBL1201862, “PubChem BioAssay data set” (2004).
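How tested: cells in 96-well plates exposed to compound for 48 hours at five concentrations. At the GI50, growth is halved.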 Active and inactive are the calls of the source. Rule as the data show it: active = GI50 up to about 1.1 µM and inactive = higher. Residues, ends and D or L forms follow the SMILES beside them. *: point of attachment. Cbz = O=C(OCc1ccccc1)*

Key:
Assay in all cases: DTP human tumour cell line panel, 48 h
786-0 = tested on: 786-0
KM12 = tested on: KM12
RXF 393 = tested on: RXF 393
A498 = tested on: A498
SF-295 = tested on: SF-295
SN12C = tested on: SN12C
K562 = tested on: K562
HL-60 = tested on: HL-60
MDA-MB-231 = tested on: MDA-MB-231
UO-31 = tested on: UO-31
SNB-75 = tested on: SNB-75
NCI/ADR-RES = tested on: NCI/ADR-RES
OVCAR-3 = tested on: OVCAR-3
MCF7 = tested on: MCF7
SK-MEL-28 = tested on: SK-MEL-28
SK-MEL-2 = tested on: SK-MEL-2
A549 = tested on: A549
CCRF-CEM = tested on: CCRF-CEM
NCI-H522 = tested on: NCI-H522
BT-549 = tested on: BT-549

Structure (SMILES)	GI50 (786-0)	GI50 (KM12)	GI50 (RXF 393)	GI50 (A498)	GI50 (SF-295)	GI50 (SN12C)	GI50 (K562)	GI50 (HL-60)	GI50 (MDA-MB-231)	GI50 (UO-31)	GI50 (SNB-75)	GI50 (NCI/ADR-RES)	GI50 (OVCAR-3)	GI50 (MCF7)	GI50 (SK-MEL-28)	GI50 (SK-MEL-2)	GI50 (A549)	GI50 (CCRF-CEM)	GI50 (NCI-H522)	GI50 (BT-549)
Cc1ccccc1C1CC(=O)CC(c2ccccc2C)C12C(=O)NC(=S)NC2=O (stereo not drawn)	34.9 µM (inactive)	22.1 µM (inactive)	19.6 µM (inactive)	22.9 µM (inactive)	24.8 µM (inactive)	26.4 µM (inactive)	39.5 µM (inactive)	21 µM (inactive)	31.3 µM (inactive)	17.9 µM (inactive)	20.8 µM (inactive)	30.3 µM (inactive)	29 µM (inactive)	32 µM (inactive)	20.2 µM (inactive)	13.4 µM (inactive)	29.5 µM (inactive)	25 µM (inactive)		
C=CCC(CC=O)(C(=O)OCC)C(=O)OCC	> 100 µM (inactive)	> 100 µM (inactive)	> 100 µM (inactive)	> 100 µM (inactive)	> 100 µM (inactive)	> 100 µM (inactive)	> 100 µM (inactive)	86.1 µM (inactive)	> 100 µM (inactive)	76.2 µM (inactive)	> 100 µM (inactive)	> 100 µM (inactive)	> 100 µM (inactive)	> 100 µM (inactive)	> 100 µM (inactive)	> 100 µM (inactive)	> 100 µM (inactive)	> 100 µM (inactive)	> 100 µM (inactive)	
Cc1cc(NCCCCCCCNc2cc(C)nc3cc([N+](=O)[O-])ccc23)c2ccc([N+](=O)[O-])cc2n1	4.8 µM (inactive)	1.85 µM (inactive)	8.18 µM (inactive)	10.8 µM (inactive)	5.9 µM (inactive)	4 µM (inactive)	1.28 µM (inactive)	0.451 µM (active)	2.47 µM (inactive)	13.9 µM (inactive)	11.2 µM (inactive)		4.38 µM (inactive)		4.34 µM (inactive)	24.7 µM (inactive)	3.69 µM (inactive)	2.04 µM (inactive)	1.61 µM (inactive)	20 µM (inactive)
Cc1ccc(/C=C2\CN(C)CC3=C2N=C(S)NC3c2ccc(C)cc2)cc1 (stereo not drawn)	21 µM (inactive)	15.4 µM (inactive)	31.6 µM (inactive)	> 100 µM (inactive)	36.9 µM (inactive)	32.7 µM (inactive)	23.3 µM (inactive)	28.2 µM (inactive)	34.8 µM (inactive)	55.1 µM (inactive)	10.2 µM (inactive)	23.8 µM (inactive)	22.1 µM (inactive)	24.7 µM (inactive)	> 100 µM (inactive)	51.3 µM (inactive)	37.2 µM (inactive)	30.1 µM (inactive)	39.5 µM (inactive)	
CCOC(=O)c1ccc(Nc2nc3ccccc3nc2-c2cccs2)cc1	50.7 µM (inactive)	49.1 µM (inactive)	23.7 µM (inactive)		49.4 µM (inactive)	21.2 µM (inactive)	46.8 µM (inactive)	24.8 µM (inactive)	18.7 µM (inactive)	73.6 µM (inactive)	16.8 µM (inactive)	35.6 µM (inactive)	31 µM (inactive)	34 µM (inactive)	> 100 µM (inactive)		66.4 µM (inactive)	41.8 µM (inactive)	28.1 µM (inactive)	
Cc1ccc(S(=O)(=O)N/N=C2\CC(C)OC3=C2CCCCCC3)cc1 (stereo not drawn)	17.1 µM (inactive)	19.7 µM (inactive)	17.6 µM (inactive)	15.5 µM (inactive)	15.8 µM (inactive)	19.3 µM (inactive)	21.5 µM (inactive)	23 µM (inactive)	19.1 µM (inactive)	17.4 µM (inactive)	24.2 µM (inactive)	20.5 µM (inactive)	19.7 µM (inactive)	19 µM (inactive)	22.1 µM (inactive)		16.7 µM (inactive)	24.7 µM (inactive)		
CN1C=COC1N=C1CCCCC1 (stereo not drawn)	> 100 µM (inactive)	> 100 µM (inactive)	> 100 µM (inactive)	> 100 µM (inactive)	> 100 µM (inactive)	> 100 µM (inactive)	> 100 µM (inactive)	> 100 µM (inactive)	> 100 µM (inactive)	50.9 µM (inactive)	41.4 µM (inactive)	> 100 µM (inactive)	> 100 µM (inactive)	> 100 µM (inactive)	> 100 µM (inactive)	> 100 µM (inactive)	> 100 µM (inactive)	> 100 µM (inactive)	> 100 µM (inactive)	
C#CCOC(=O)C=[N+]=[N-]	> 10 µM (inactive)	> 10 µM (inactive)	> 10 µM (inactive)	6.92 µM (inactive)	> 10 µM (inactive)	> 10 µM (inactive)	> 10 µM (inactive)	> 10 µM (inactive)	> 10 µM (inactive)	> 10 µM (inactive)			> 10 µM (inactive)	> 10 µM (inactive)	> 10 µM (inactive)	> 10 µM (inactive)	> 10 µM (inactive)	> 10 µM (inactive)		> 10 µM (inactive)
O=C(c1ccc2ccccc2c1)C1S(=O)(=O)OCCOS1(=O)=O	> 100 µM (inactive)	> 100 µM (inactive)			> 100 µM (inactive)	> 100 µM (inactive)	> 100 µM (inactive)	> 100 µM (inactive)		> 100 µM (inactive)		> 100 µM (inactive)	> 100 µM (inactive)	> 100 µM (inactive)	> 100 µM (inactive)	> 100 µM (inactive)	> 100 µM (inactive)	> 100 µM (inactive)		> 100 µM (inactive)
Fc1ccccc1-c1nn2c(C34CC5CC(CC(C5)C3)C4)nnc2s1	> 100 µM (inactive)		> 100 µM (inactive)	> 100 µM (inactive)	> 100 µM (inactive)	> 100 µM (inactive)	> 100 µM (inactive)		> 100 µM (inactive)	> 100 µM (inactive)	> 100 µM (inactive)	> 100 µM (inactive)	> 100 µM (inactive)		> 100 µM (inactive)	> 100 µM (inactive)	> 100 µM (inactive)	> 100 µM (inactive)	> 100 µM (inactive)	
CCOC(=O)CCC(NC(=O)OCc1ccccc1)C(=O)NC(CCC(=O)OCC)C(=O)OCC (stereo not drawn) (Cbz-Glu(OEt)-Glu(OEt)-OEt; configuration not given here)	> 100 µM (inactive)	> 100 µM (inactive)	> 100 µM (inactive)	> 100 µM (inactive)	> 100 µM (inactive)	> 100 µM (inactive)	> 100 µM (inactive)		> 100 µM (inactive)	> 100 µM (inactive)	> 100 µM (inactive)	> 100 µM (inactive)	> 100 µM (inactive)	> 100 µM (inactive)	> 100 µM (inactive)	> 100 µM (inactive)	> 100 µM (inactive)	> 100 µM (inactive)	> 100 µM (inactive)	
